From PubChem BioAssay (NCI) come the findings set out here.

Several values for one entry are separate records, joined by “and”; a condition that tells them apart may be missing. Equal values may be shown once.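 48-hour exposure; five concentrations; linearly interpolated endpoints. At the GI50, growth is halved. The concentration for full growth arrest is given as TGI.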 Numbered stars: 1 amine (or outer) side, 2 acyl side, 3 side chain; on linkers, the order of the positions; unused ones are H or OH. *1 amine or outer side, *2 acyl side, *3 side chain or, on linkers, in order; H or OH if unused. Bridge positions count the residues as written; N and C are the ends. Where a SMILES comes first, the peptide text is derived from it. Square brackets hold non-standard residues; d marks the D form. Peptide text beside a SMILES is read from it. I, II: the chains in the order shown. [ ]: non-standard residue; d: D form. The star is where a group is joined. Actinocin(9to1) = Cc1c2oc3c(C)ccc(C(=O)[*:1])c3nc-2c(C(=O)[*:2])c(N)c1=O; X11 = C/C=C/CC(C)C(O)[C@H](N[*:1])C(=O)[*:2]; aThr = C[C@H](O)[C@H](N)C(=O)O; NMeV = CN[C@H](C(=O)O)C(C)C; Decanoyl = CCCCCCCCCC(=O)*; Leu(ol) = CC(C)C[C@H](N)CO; Aib = CC(C)(N)C(=O)O; Sar = CNCC(=O)O A value given as a limit tells only on which side of the number the result lay.

The test system of this test is MDA-MB-468 breast. In words: growth of human tumour cells (NCI), 48 h.
`O=C(/C=C/C=C/c1ccc2c(c1)OCO2)N/N=C\c1ccc(O)cc1O`: the GI50 is 1660 nM and the TGI came out at 5730 nM.
On the same counts, the results for `CC[C@@H](C)/C=C(C)/C=C/C(=O)c1c(O)c(-c2ccc(O)cc2)cn(OC2CC(=O)CCC(C)OC(=O)CC2O)c1=O` (some centres not stated) are 239 nM and 852 nM.
The like results for `CCCCCCCCCCCCCCCCCC[S+](C)CC` (configuration not stated) were, in that order, 527 nM and 2660 nM.
Consider `C=CC(=O)N1CCC[C@@H](n2nc(-c3ccc(Oc4ccccc4)cc3)c3c(N)ncnc32)C1`, for which the GI50 was 67.4 nM and the TGI is 1240 nM.
Take `CC(=O)Nc1cc2c3c(cccc3c1)-c1ccccc1-2`: the GI50 is 37400 nM and the TGI was more than 100000 nM.
The like results for `Nc1n[nH]c2ccc([C@@H]3Nc4ccc5cn[nH]c5c4[C@H]4C5CCC(C5)[C@@H]34)cc12` (some centres not stated) were, in that order, 330 nM and 5040 nM.
The like results for `COC(=O)Nc1nc2ccc(C(=O)c3ccc(F)cc3)cc2[nH]1` were, in that order, 812 nM and more than 100000 nM.
Take `Cc1cc(C)c2c(c1)N(C)c1ncnc(-n3cnc4cc(C)ccc43)c1CC2C` (configuration not stated): the GI50 is 3240 nM and the TGI turned out to be 27000 nM.
The like results for `CN1CCN(Cc2ccc(NC(=O)c3cncc(C#Cc4cnc5ccc(N)nn45)c3)cc2C(F)(F)F)CC1` were, in that order, 852 nM and 3240 nM.
On the same counts, the results for `CCCCOC(=O)c1c(C)[nH]c(/C=C2\N=C(c3ccc[nH]3)C=C2OC)c1C` are 451 nM and 2020 nM.
The like results for `CN(C)CCCCNc1ccc(NCCCCN(C)C)c2c1C(=O)c1c(O)ccc(O)c1C2=O` were, in that order, 13700 nM and 26500 nM.
With `CCN1C(=O)N(CC)C2SC(N/N=C/c3cccs3)=NC21` (configuration not stated), the GI50 was 253 nM and the TGI worked out at 16600 nM.
Regarding `CO/C(=C1/NC(=O)C(Cc2ccc(O)c(Br)c2)N(C)C(=O)C(C)NC(=O)CCC/C=C(\C)CCC(C)OC1=O)c1ccccc1` (configuration not stated), the GI50 was 21.7 nM.
As to `COC(=O)c1c2c(c(C)[n+]([O-])c1C)C(=O)C(NCc1ccc(O)cc1)=CC2=O`, the GI50 was 402 nM and the TGI is 1740 nM.
The like results for `Nc1nc(N)c2c(n1)CCC(S(=O)(=O)c1ccc3ccccc3c1)C2` (configuration not stated) were, in that order, 2250 nM and 33000 nM.
On the same counts, the results for `CCCCCCCCCCCCCCCCCCOc1ccccc1COP(=O)(O)OOCC[N+](C)(C)C` are 493 nM and 1470 nM.
Turning to `COc1cc(C2CC(c3cccc(Nc4ccnc5cc(Cl)ccc45)c3)=NN2c2ccccc2)cc(OC)c1OC` (configuration not stated), the GI50 is 20100 nM and the TGI was more than 100000 nM.
With `Cc1cc(-c2cc(OC(=O)c3ccccc3)ccc2Cl)cc2nnc(Nc3ccc(OCCN4CCCC4)cc3)nc12`, the GI50 was 1320 nM and the TGI amounted to 2910 nM.
The like results for `C#CCNC(=O)CC[C@@H](C)[C@H]1CC[C@H]2[C@@H]3CC[C@@H]4CC(=O)CC[C@]4(C)[C@H]3CC[C@]12C` were, in that order, 13800 nM and 45400 nM.
As to `CN1CCN(Cc2ccc(NC(=O)c3cncc(C#Cc4cnc5ccc(N6CCOCC6)nn45)c3)cc2C(F)(F)F)CC1`, the GI50 was 73.5 nM and the TGI amounted to 165 nM.
The like results for `COc1ncc(-c2ccc3nccc(C#CCCCCC(=O)NO)c3c2)cc1NS(=O)(=O)c1ccc(F)cc1F` were, in that order, 21.4 nM and 116 nM.
As for `O=C(Nc1cccc(-n2cc(-c3ccncc3)c(-c3ccc(Cl)c(O)c3)n2)c1)Nc1ccc(Cl)c(Cl)c1`, the GI50 is 729 nM and the TGI is 4250 nM.
For `NC1(C(=O)N[C@@H](CCO)c2ccc(Cl)cc2)CCN(c2ncnc3[nH]ccc23)CC1`, the GI50 is 128 nM and 162 nM; the TGI is 1170 nM and 2210 nM.
As to `O=C1c2ccc3c4c(ccc(c24)C(=O)N1CCNCc1ccccc1)C(=O)N(CCNCc1ccccc1)C3=O`, the GI50 was 1590 nM and the TGI was 3100 nM.
Take `C[C@]12CC[C@H]3[C@@H](CC[C@]4(O)C[C@@H](O[C@@H]5O[C@H](CO)[C@@H](O[C@@H]6OC[C@@H](O)[C@H](O)[C@H]6O)[C@H](O)[C@H]5O)CC[C@]34C=O)[C@@]1(O)CC[C@@H]2C1=CC(=O)OC1`: the GI50 is 10000 nM and the TGI stood at 32300 nM.
On the same counts, the results for `COc1c(B(O)O)cccc1-c1nc2c(F)cc3n[nH]c(C)c3c2c2c1CCCC2` are 994 nM and 4120 nM.
As to `CC(=O)N[C@@H](Cc1ccc(OP(=O)(O)O)cc1)C(=O)N[C@H]1CCC(=O)N2CCC[C@@H](C(=O)NC3CCc4ccccc43)N2C1=O` (some centres not stated), the GI50 is more than 25000 nM and the TGI was more than 25000 nM.
As for `CN1CCN(Cc2ccc(NC(=O)c3cncc(C#Cc4cnc5ccc(OCCCS(C)(=O)=O)nn45)c3)cc2C(F)(F)F)CC1`, the GI50 was 684 nM and the TGI amounted to 1680 nM.
On the same counts, the results for `Nc1ncnc2c1ccn2-c1cccc(NC(=O)c2ccc(N3CCOCC3)c(C(F)(F)F)c2)c1` are 2130 nM and 7070 nM.
For the compound `CN(C)C1CN(C(=O)c2cc(-c3ccc4ncnc(N5CCc6cc(F)c(Cl)cc65)c4c3)cnc2N)C1`, the GI50 is 254 nM and the TGI was found to be 1070 nM.
As for `COc1cc(C(=O)NN=C2c3ccccc3-c3ccccc32)cc(OC)c1OC`, the GI50 is 3470 nM and the TGI is 41900 nM.
The like results for `CC(=O)ON=C1C=CC(=C(C#N)c2ccccc2)C=C1` were, in that order, 420 nM and 12500 nM.
Consider `Nc1c(C(=O)Nc2cccc(C(F)(F)F)c2)sc2nc3c(cc12)CCCCCC3`, for which the GI50 is 798 nM and the TGI turned out to be 3320 nM.
On the same counts, the results for `O=C1OCC2=C1C(c1cccc(Cl)c1)c1cc3c(cc1N2CCO)CCC3` (configuration not stated) are 23.1 nM and 840 nM.
On the same counts, the results for `COc1cc(N(CCCl)CCCl)ccc1/C=N\NC(=O)c1cccnc1` are 1280 nM and 6830 nM.
The like results for `Cc1cnc(-c2ccc(-c3ccc(NC(=O)Nc4c(F)cc(F)cc4F)cc3F)c3c2C(=O)NC3)[nH]1` were, in that order, 1480 nM and 3860 nM.
For `CCc1ccc(SC2c3ccc(N(CC)CC)cc3Oc3nc(N)c(C#N)c(N)c32)cc1` (configuration not stated), the GI50 is 1580 nM and the TGI was found to be 3060 nM.
On the same counts, the results for `COc1cc(C)[nH]c(=O)c1CNC(=O)c1c(C)n([C@H](C)C2CCN(CC(F)(F)F)CC2)c2ccccc12` are 24900 nM and more than 100000 nM.
Turning to `CC[C@@]1(O)C(=O)OCc2c1cc1n(c2=O)Cc2c-1nc1cc(F)c(C)c3c1c2[C@@H](NC(=O)CO)CC3`, the GI50 was less than 10 nM and the TGI was less than 10 nM.
As for `CC/C(=C(/c1ccc(OCCN(C)C)cc1)c1ccc(OC(=O)CCCCCCCCC(=O)c2c(C)[nH]c(/C=C3\N=C(c4ccc[nH]4)C=C3OC)c2C)cc1)c1ccccc1`, the GI50 was 3620 nM and the TGI was more than 100000 nM.
The like results for `COc1cc(N2CCC(N)CC2)ccc1Nc1ncc(Cl)c(-c2c[nH]c3ccccc23)n1` were, in that order, 415 nM and 1740 nM.
On to `COc1ccc(/C=C\c2cc(OC)c(OC)c(OC)c2)c(NS(=O)(=O)c2ccc(F)cc2)c1O`, for which the GI50 was 69.2 nM.
As for `C/C=C/CC(C)C(O)[C@H](NC(=O)[C@@H]1CCCN1C(=O)C(C)(C)NC(=O)CCCCCCCCC)C(=O)NC(C)(C)C(=O)N[C@@H](CCC(N)=O)C(=O)N[C@H](CCC(N)=O)C(=O)NC(C)(C)C(=O)NC(C)(C)C(=O)N[C@@H](CCC(N)=O)C(=O)N[C@H](CC(C)C)C(=O)N[C@H](CO)CC(C)C` (stereo partly drawn) (Decanoyl-[Aib]P[X11][Aib]Q[dQ][Aib][Aib]Q[dL][Leu(ol)]), the GI50 was 1490 nM and the TGI is 2980 nM.
On the same counts, the results for `COC(=O)[C@]12CC[C@@H](C)[C@H](C)[C@@H]1C1=CC[C@@H]3[C@@](C)(CC#N)C4=C(C[C@@]3(C)[C@]1(C)CC2)OC[C@]4(C)C=O` are 10700 nM and 42300 nM.
Turning to `CCN(CC)CC(O)c1cc(-c2ccc(Cl)cc2)nc2c(C)c(Cl)ccc12` (configuration not stated), the GI50 is 1890 nM and the TGI is 3420 nM.
On the same counts, the results for `Cn1c(=O)c(Oc2ccc(F)cc2F)cc2cnc(NCC(C)(C)O)nc21` are more than 25000 nM and more than 25000 nM.
On the same counts, the results for `Fc1ccc(Nc2nc3nonc3nc2Nc2ccc(I)cc2)cc1` are 251 nM and 790 nM.
With `Cc1c2oc3c(C)ccc(C(=O)N[C@@H]4C(=O)N[C@H](C(C)C)C(=O)N5CCC[C@H]5C(=O)N(C)CC(=O)N(C)[C@@H](C(C)C)C(=O)O[C@H]4C)c3nc-2c(C(=O)N[C@@H]2C(=O)N[C@H](C(C)C)C(=O)N3CCC[C@H]3C(=O)N(C)CC(=O)N(C)[C@@H](C(C)C)C(=O)O[C@H]2C)c(N)c1=O` (I: [aThr][dV]P[Sar][NMeV] / II: [aThr][dV]P[Sar][NMeV]; ester I:1-I:C, II:1-II:C; linker I:N-II:N via Actinocin(9to1)), the TGI is 48.5 nM and 15.7 nM.
For the compound `COCCn1c2c([n+](Cc3cnccn3)c1C)C(=O)c1ccccc1C2=O`, the GI50 is less than 10 nM and the TGI was found to be 14.1 nM.
Turning to `CN1CCN(CCC=C2c3ccccc3Sc3ccc(S(=O)(=O)N(C)C)cc32)CC1`, the GI50 is 1380 nM and 1530 nM; the TGI is 2970 nM and 4260 nM.
